Reference: PubChem BioAssay (NCI)
Where “and” joins values, the source holds several entries; their conditions need not be identical. Equal entries are not always repeated.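 How tested: cells in 96-well plates exposed to compound for 48 hours at five concentrations. GI50 = concentration required for 50% inhibition of growth. TGI: concentration producing complete growth inhibition.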

Legend:
Test in all cases: DTP human tumour cell line panel, 48 h
HCC-2998 colon = system: HCC-2998 colon
OVCAR-8 ovarian = system: OVCAR-8 ovarian
OVCAR-4 ovarian = system: OVCAR-4 ovarian
COLO 205 colon = system: COLO 205 colon
SF-539 CNS = system: SF-539 CNS
SF-295 CNS = system: SF-295 CNS
NCI-H460 lung = system: NCI-H460 lung
LOX IMVI melanoma = system: LOX IMVI melanoma
HS 578T breast = system: HS 578T breast
T-47D breast = system: T-47D breast

| SMILES | TGI (HCC-2998 colon) [µM] | TGI (OVCAR-8 ovarian) [µM] | TGI (OVCAR-4 ovarian) [µM] | TGI (COLO 205 colon) | TGI (SF-539 CNS) | TGI (SF-295 CNS) [µM] | TGI (NCI-H460 lung) [µM] | TGI (LOX IMVI melanoma) [µM] | TGI (HS 578T breast) [µM] | TGI (T-47D breast) [µM] | GI50 (HCC-2998 colon) | GI50 (OVCAR-8 ovarian) | GI50 (OVCAR-4 ovarian) [µM] | GI50 (SF-539 CNS) | GI50 (HS 578T breast) [µM] | GI50 (T-47D breast) [µM] | GI50 (SF-295 CNS) | GI50 (NCI-H460 lung) | GI50 (LOX IMVI melanoma) | GI50 (COLO 205 colon) |
| --- | --- | --- | --- | --- | --- | --- | --- | --- | --- | --- | --- | --- | --- | --- | --- | --- | --- | --- | --- | --- |
| Cc1nc([N+](=O)[O-])cn1CC(=N)N | > 100 | > 100 | > 100 | > 100 µM | > 100 µM | > 100 | > 100 | > 100 |  |  |  |  |  |  |  |  |  |  |  |  |
| Cc1nc2sc3c(c2c(=O)[nH]1)CCCC3 |  | > 100 | > 100 | > 100 µM | > 100 µM | > 100 | 86.1 | > 100 | > 100 | > 100 |  |  |  |  |  |  |  |  |  |  |
| Cc1ccc(NC(=O)CSc2nnc(-c3ccc(N=Cc4ccc(Cl)cc4)cc3)o2)cc1 |  | > 100 | > 100 | > 100 µM |  | > 100 | > 100 | > 100 |  |  |  |  |  |  |  |  |  |  |  |  |
| CCCN1CN(C(C(=O)N[C@@H]2C(=O)N3C2SC(C)(C)C3C(=O)O)c2ccc(O)cc2)CSC1=S (stereo partly drawn) |  | > 100 | > 100 | > 100 µM | > 100 µM | > 100 | > 100 | > 100 |  |  |  |  |  |  |  |  |  |  |  |  |
| Cc1cc(S(=O)(=O)O)c(NC(=O)C(=O)Cc2cc(=O)oc3cc(O)ccc23)cc1Cl | > 100 | > 100 | > 100 | > 100 µM | > 100 µM | > 100 | > 100 | > 100 |  |  |  |  |  |  |  |  |  |  |  |  |
| O=C1c2ccccc2-c2c1c1ccccc1c(=O)n2CCCCl | 96.6 | 44.8 | > 100 |  | 21.5 µM | 23.1 | > 100 | 35.7 | 73.5 | > 100 | 10.4 µM | 9.28 µM | > 100 | 4.11 µM | 17.6 | 22.5 | 6.34 µM | 3.57 µM | 6.78 µM |  |
| C/C(CC(=O)Nc1cccc(Cl)c1C)=N\NC(=O)c1ccncc1 | > 100 | > 100 |  | > 100 µM | > 100 µM | > 100 | > 100 | > 100 |  |  |  |  |  |  |  |  |  |  |  |  |
| Cc1ccc(C)c(N=C2NC(=O)C(CC(=O)Nc3ccc(Cl)cc3Cl)S2)c1 (stereo not drawn) | > 100 | > 100 | > 100 | > 100 µM | > 100 µM | > 100 | > 100 | > 100 |  |  |  |  |  |  |  |  |  |  |  |  |
| CC(C)C(=O)NS(=O)(=O)c1ccccc1 | > 100 | > 100 | > 100 | > 100 µM | > 100 µM | > 100 | > 100 | > 100 |  |  |  |  |  |  |  |  |  |  |  |  |
| COC(=O)[C@@H](C)C[C@H](Cc1ccccc1)NC(=O)c1csc([C@@H](C[C@H](C(C)C)N(C)C(=O)[C@@H](NC(=O)[C@H]2CCCCN2C)C2CCCCC2)OC(C)=O)n1 | > 25 | > 25 | > 25 | 0.0026 µM and < 0.0025 µM | 0.00619 µM and 0.00859 µM | > 25 | > 25 | 23 |  |  | 0.000455 µM and 0.0025 µM | 0.00354 µM and 0.0025 µM |  | 0.00211 µM and 0.0025 µM | 0.0026 |  | 0.000346 µM and 0.0025 µM | 0.000321 µM and 0.0025 µM | 0.00139 µM and 0.0025 µM | 0.000301 µM and < 0.0025 µM |
| CC(=O)O[C@H]1CCC2[C@@H]3CCC4Nc5[nH]ncc5C[C@]4(C)C3CC[C@@]21C (stereo partly drawn) | 79.7 | > 100 | > 100 | > 100 µM | > 100 µM | > 100 | > 100 | > 100 |  |  |  |  |  |  |  |  |  |  |  |  |
